Data published in patent publication US20260256792A1, “TREATMENT OF CHRONIC SPONTANEOUS URTICARIA BY ADMINISTERING (R)-2-[3-[4-AMINO-3-(2-FLUORO-4-PHENOXY-PHENYL)PYRAZOLO[3,4-D]PYRIMIDIN-1-YL]PIPERIDINE-1-CARBONYL]-4-METHYL-4-[4-(OXETAN-3-YL)PIPERAZIN-1-YL]PENT-2-ENENITRILE” (priority 2023, published 2026).

System: moderate-to-severe chronic spontaneous urticaria (CSU)
Experiment: Phase 2 CSU study: urticaria activity score over 7 days (UAS7)
Assay type: in vivo, human
Set-up: key to UAS7 Median / UAS7 Change from baseline Median / UAS7 change from baseline, Q1 / UAS7 change from baseline, Q3 / UAS7 change from baseline, Max / UAS7 Change from baseline LS Mean (SE): UAS7 points; daily UAS score ranges 0–6 points/day, over 7 days
From the text: The study comprises a 12 week, randomized, double-blind, placebo-controlled, multi-center, dose-ranging efficacy and safety phase, followed by a 40 week open label extension (OLE) phase (see FIG. 1). The study consists of three phases and an optional OLE phase. […] Clinically, CSU is characterized by the spontaneous and recurrent appearance of pruritic hives. The proposed primary endpoints were the UAS7 at Week 12 in EU and EU reference countries and the ISS7 in the US. Regardless of where a participant was from, all assessments were the same. The UAS7 score is a composite score containing both the HSS7 and the ISS7. This allowed a global assessment of the two key components of urticaria: hives and itch. […] The UAS is a validated PRO measure. […] The daily UAS scores range from 0 to 6 point/day. […] Patients were to complete the UAS using the e-diary. […] The following secondary endpoints were to be analyzed using the same approach as for the primary endpoint: • Change from baseline in UAS7 at Week 4 • Change from baseline in UAS7 at Week 12 (for US and US reference countries) • Change from baseline in ISS7 at Week 12 (except US and US reference countries) • Change from baseline in HSS7 at Week 12 The following responder secondary endpoints were to be analyzed using the Cochran-Mantel-Haenszel test adjusted by region: • Proportion of participants with UAS7<6 at Week 12 • Proportion of participants with UAS7=0 at Week 12 Participants who received selected prohibited medications and/or rescue medications were to be considered as non-responders for time points after the medication usage. For other participants, all available data including those collected during the off-treatment period were to be used to determine the responder/non-responder status. Missing data were to be considered as non-responders.

[1] = Week 4, 400 mg TID, omalizumab-naive participants
[2] = Week 5, 400 mg BID, ITT population
[3] = Week 5, 400 mg BID, Omalizumab-Naïve
[4] = Week 5, 400 mg BID, Prior Omalizumab Use
[5] = Week 5, 400 mg BID, omalizumab-naive participants
[6] = Week 5, 400 mg QPM, ITT population
[7] = Week 5, 400 mg QPM, Omalizumab-Naïve
[8] = Week 5, 400 mg QPM, Prior Omalizumab Use
[9] = Week 5, 400 mg QPM, omalizumab-naive participants
[10] = Week 5, 400 mg TID, ITT population
[11] = Week 5, 400 mg TID, Omalizumab-Naïve
[12] = Week 5, 400 mg TID, Prior Omalizumab Use
[13] = Week 5, 400 mg TID, omalizumab-naive participants

## CC(C)(C=C(C#N)C(=O)N1CCC[C@@H](n2nc(-c3ccc(Oc4ccccc4)cc3F)c3c(N)ncnc32)C1)N1CCN(C2COC2)CC1 [rilzabrutinib, (R)-2-[3-[4-amino-3-(2-fluoro-4-phenoxy-phenyl)pyrazolo[3,4-d]pyrimidin-1-yl]piperidine-1-carbonyl]-4-methyl-4-[4-(oxetan-3-yl)piperazin-1-yl]pent-2-enenitrile]
Week 4, 400 mg TID, Prior Omalizumab Use
  UAS7 Percent change from baseline Median: −68.48%
[1]
  Non-responder, UAS7 reduction from baseline of 10 points or more: 11 (31.4) n (%)
  OR for rilzabrutinib vs. placebo, UAS7 reduction of 10 points or more: 3.855
  RRD (%) for rilzabrutinib vs. placebo, UAS7 reduction of 10 points or more: 31.2 %
  Responder, UAS7 reduction from baseline of 10 points or more: 24 (68.6) n (%)
[2]
  Non-responder, UAS7 reduction from baseline of 10 points or more: 19 (46.3) n (%)
  OR for rilzabrutinib vs. placebo, UAS7 reduction of 10 points or more: 1.238
  RRD (%) for rilzabrutinib vs. placebo, UAS7 reduction of 10 points or more: 5.2 %
  Responder, UAS7 reduction from baseline of 10 points or more: 22 (53.7) n (%)
[3]
  UAS7 Change from baseline Mean (SD): −12.56 (11.55)
  UAS7 Change from baseline Median: −12.67
  UAS7 Mean (SD): 17.22 (13.36)
  UAS7 Median: 16.50
  UAS7 Percent change from baseline Mean (SD): −44.07 (39.75) %
  UAS7 Percent change from baseline Median: −40.89%
[4]
  UAS7 Change from baseline Mean (SD): −25.00 (18.42)
  UAS7 Change from baseline Median: −29.00
  UAS7 Mean (SD): 9.75 (16.94)
  UAS7 Median: 2.00
  UAS7 Percent change from baseline Mean (SD): −71.30 (48.04) %
  UAS7 Percent change from baseline Median: −92.59%
[5]
  Non-responder, UAS7 reduction from baseline of 10 points or more: 16 (45.7) n (%)
  OR for rilzabrutinib vs. placebo, UAS7 reduction of 10 points or more: 1.329
  RRD (%) for rilzabrutinib vs. placebo, UAS7 reduction of 10 points or more: 7.0 %
  Responder, UAS7 reduction from baseline of 10 points or more: 19 (54.3) n (%)
[6]
  Non-responder, UAS7 reduction from baseline of 10 points or more: 21 (55.3) n (%)
  OR for rilzabrutinib vs. placebo, UAS7 reduction of 10 points or more: 0.950
  RRD (%) for rilzabrutinib vs. placebo, UAS7 reduction of 10 points or more: −1.3 %
  Responder, UAS7 reduction from baseline of 10 points or more: 17 (44.7) n (%)
[7]
  UAS7 Change from baseline Mean (SD): −10.65 (9.52)
  UAS7 Change from baseline Median: −8.50
  UAS7 Mean (SD): 20.63 (9.18)
  UAS7 Median: 18.63
  UAS7 Percent change from baseline Mean (SD): −32.46 (26.63) %
  UAS7 Percent change from baseline Median: −27.86%
[8]
  UAS7 Change from baseline Mean (SD): −22.00 (NC)
  UAS7 Change from baseline Median: −22.00
  UAS7 Mean (SD): 19.00 (NC)
  UAS7 Median: 19.00
  UAS7 Percent change from baseline Mean (SD): −53.66 (NC) %
  UAS7 Percent change from baseline Median: −53.66%
[9]
  Non-responder, UAS7 reduction from baseline of 10 points or more: 21 (56.8) n (%)
  OR for rilzabrutinib vs. placebo, UAS7 reduction of 10 points or more: 0.877
  RRD (%) for rilzabrutinib vs. placebo, UAS7 reduction of 10 points or more: −3.4 %
  Responder, UAS7 reduction from baseline of 10 points or more: 16 (43.2) n (%)
[10]
  Non-responder, UAS7 reduction from baseline of 10 points or more: 12 (29.3) n (%)
  OR for rilzabrutinib vs. placebo, UAS7 reduction of 10 points or more: 2.703
  RRD (%) for rilzabrutinib vs. placebo, UAS7 reduction of 10 points or more: 23.5 %
  Responder, UAS7 reduction from baseline of 10 points or more: 29 (70.7) n (%)
[11]
  UAS7 Change from baseline Mean (SD): −16.74 (11.67)
  UAS7 Change from baseline Median: −15.17
  UAS7 Mean (SD): 13.41 (10.60)
  UAS7 Median: 14.00
  UAS7 Percent change from baseline Mean (SD): −54.42 (33.80) %
  UAS7 Percent change from baseline Median: −50.00%
[12]
  UAS7 Change from baseline Mean (SD): −24.11 (14.81)
  UAS7 Change from baseline Median: −20.50
  UAS7 Mean (SD): 8.92 (10.94)
  UAS7 Median: 5.50
  UAS7 Percent change from baseline Mean (SD): −70.71 (27.72) %
  UAS7 Percent change from baseline Median: −73.90%
[13]
  Non-responder, UAS7 reduction from baseline of 10 points or more: 11 (31.4) n (%)
  OR for rilzabrutinib vs. placebo, UAS7 reduction of 10 points or more: 2.512
  RRD (%) for rilzabrutinib vs. placebo, UAS7 reduction of 10 points or more: 22.4 %
  Responder, UAS7 reduction from baseline of 10 points or more: 24 (68.6) n (%)
Week 6, 400 mg BID, ITT population
  Non-responder, UAS7 reduction from baseline of 10 points or more: 20 (48.8) n (%)
